Measurements taken from paper PMC10916382, “Repurposing screen identifies novel candidates for broad-spectrum coronavirus antivirals and druggable host targets” (Antimicrobial Agents and Chemotherapy, 2024).
Read-outs that look alike come from different tables or passages of the source.

Legend:
HCoV-229E [1] = test: microbe, parasite or virus in culture; type: cell-based, Homo sapiens sapiens
SARS-CoV-2 [2] = type: cell-based; conditions: dose range 0.15 µM to 10 µM, viral genome copies in apical washes and cellular lysates
SARS-CoV-2 [3] = conditions: for SI (CC50/IC50): CC50 from LDH assay / IC50 from qRT-PCR
SARS-CoV-2 [4] = conditions: Calu-3 cells; for outcome against confirmation criteria of the SARS-CoV-2 counter-screen (<50% infected cell, >75% total cells): single dose of 5 µM; for total cell numbers / reduction of infected cell numbers: 5 µM, relative to DMSO; for total cell numbers: DAPI; for reduction of infected cell numbers: N protein immunofluorescence
[5] = system: primary human airway epithelial cells; conditions: dose range 0.15 µM to 10 µM, cellular lysates
in vitro [6] = conditions: human
SARS-CoV-2 [7] = test: microbe, parasite or virus in culture; conditions: Severe acute respiratory syndrome coronavirus 2, Calu-3, 48 h
HCoV-229E [8] = test: Twelve-step dose titration against HCoV-229E infection on Huh-7.5/F-Luc/Cas9 cells; type: cell-based, Homo sapiens sapiens; conditions: n = 3
Huh-7.5/F-Luc/Cas9 cells = conditions: twelve-step 1:3 dilutions, n = 3
in vitro [9] = conditions: human; remark: listed apart in the source
Huh-7.5/F-Luc cells = conditions: for CC50 (µM): Huh-7.5 cells, dose series, maximum tested dose 5 µM; for % cell viability at max. dose [5 µM]: at max. dose 5 µM
in vitro [10] = conditions: Anti-SARS-CoV-2 screening on Calu-3 cells: viability [% of control], Calu-3 cells
SARS-CoV-2 [11] = conditions: Calu-3 and Vero cells; cited from earlier work
HCoV-229E [12] = system: HCoV-229E; parameters: method as in PMID 34446714; conditions: Huh-7.5 cells; cited from earlier work
Calu-3 cells = conditions: LDH release, non-infected Calu-3 cells, 48 hours of drug treatment
[13] = Human coronavirus 229E, Huh7.5, 48 h, read-out: IC50 against HCoV-229E
[14] = Human coronavirus 229E, Huh7.5, twelve-step 1:3 dilutions

CC1(C)CC[C@]2(NC(=O)C(C)(F)F)CC[C@]3(C)[C@H](C(=O)C=C4[C@@]5(C)C=C(C#N)C(=O)C(C)(C)[C@@H]5CC[C@]43C)[C@@H]2C1 [Omaveloxolone]
IC50 (HCoV-229E [1]; [13]): 78 nM
antiviral activity against SARS-CoV-2 in HAE cells (SARS-CoV-2 [2]): inhibited SARS-CoV-2 infection at 1.25 µM and 2.5 µM
SI (CC50/IC50) (SARS-CoV-2 [3]; Calu-3 cells): > 8.66
outcome against confirmation criteria of the SARS-CoV-2 counter-screen (<50% infected cell, >75% total cells) (SARS-CoV-2 [4]): did not meet the inclusion criteria
cytotoxicity in HAE cells, GAPDH mRNA [5]: maintaining high cell viability
CC50 (in vitro [6]): > 1250 nM
IC50 (SARS-CoV-2 [7]): 140 nM
IC90 (SARS-CoV-2 [7]): 2410 nM

F/C(COc1ccc2c(c1)[nH]c1ccccc12)=C1/CN2CCC1CC2 [YM-53601]
IC50 (HCoV-229E [8]; twelve-step 1:3 dilutions): 1610 nM
CC50 (Huh-7.5/F-Luc/Cas9 cells): 28100 nM

C=C(CC[C@]12O[C@H](C(=O)O)[C@@](O)(C(=O)O)[C@](C(=O)O)(O1)[C@H](OC(=O)/C=C/[C@@H](C)C[C@@H](C)CC)[C@H]2O)[C@@H](OC(C)=O)[C@H](C)Cc1ccccc1 [Zaragozic Acid A, Zaragozic acid A]
IC50 (HCoV-229E [8]; [14]): 1930 nM
CC50 (in vitro [9]): > 100000 nM

CN1CC[C@H](c2c(O)cc(O)c3c(=O)cc(-c4ccccc4Cl)oc23)[C@H](O)C1 [Flavopiridol]
antiviral activity against SARS-CoV-2 in HAE cells (SARS-CoV-2 [2]): the reduction in viral genome copies could not be separated from an increase in cytotoxicity
SI (CC50/IC50) (SARS-CoV-2 [3]; Calu-3 cells): 2.21
total cell numbers (SARS-CoV-2 [4]): ≥ 75%
reduction of infected cell numbers (SARS-CoV-2 [4]): more than 50%
outcome against confirmation criteria of the SARS-CoV-2 counter-screen (<50% infected cell, >75% total cells) (SARS-CoV-2 [4]): qualified as a hit in both imaging- and qRT-PCR-based assays
CC50 (in vitro [6]): 460 nM
IC50 (SARS-CoV-2 [7]): 210 nM
IC90 (SARS-CoV-2 [7]): 520 nM

CC/C(=C(/C#N)c1ccc(OCCN(CC)CC)cc1)c1ccc(Cl)cc1 [P-3622, Z-3-(4-chlorophenyl)-2-(4-(2-(diethylamino)ethoxy)phenyl)pent-2-enenitrile]
IC50 (HCoV-229E [1]; Human coronavirus 229E, Huh7.5): 880 nM
IC50 (HCoV-229E [8]; [14]): 359 nM
antiviral activity against SARS-CoV-2 in HAE cells (SARS-CoV-2 [2]): limited antiviral activity
CC50 (µM) (Huh-7.5/F-Luc cells): greater than maximum tested dose
SI (CC50/IC50) (SARS-CoV-2 [3]; Calu-3 cells): 2.09
Anti-SARS-CoV-2 screening on Calu-3 cells: intracellular SARS-CoV-2 infection measured via immunofluorescence imaging [% of control] (SARS-CoV-2 [4]): 97.91 % of control
cytotoxicity in HAE cells, GAPDH mRNA [5]: well tolerated
viability (in vitro [10]): 97.7%
CC50 (in vitro [6]): 19500 nM
IC50 (SARS-CoV-2 [7]): 9350 nM
IC90 (SARS-CoV-2 [7]): 23400 nM

Cc1ccccc1N=Nc1ccc(NC(=O)c2ccnn2C)c(C)c1 [CH223191]
effect on SARS-CoV-2 infection (SARS-CoV-2 [11]): decreased HCoV-229E and SARS-CoV-2 infection
effect on HCoV-229E infection (HCoV-229E [12]): decreased HCoV-229E and SARS-CoV-2 infection

C#CCOc1ccc2c(c1)c(-c1ccc(C(C)C)cc1)nc(=O)n2Cc1ccc(Br)cc1 [AXT-914, reference compound]
IC50 (HCoV-229E [1]; HCoV 229E infection, dose series, max. dose 5 µM, read-out: IC50): 50 nM
antiviral activity against SARS-CoV-2 in HAE cells (SARS-CoV-2 [2]): dose dependently inhibited SARS-CoV-2 infection
CC50 (µM) (Huh-7.5/F-Luc cells): greater than maximum tested dose
% cell viability at max. dose [5 µM] (Huh-7.5/F-Luc cells): 127.46%
IC50 (SARS-CoV-2 [3]): 5650 nM
IC90 (SARS-CoV-2 [3]): 21800 nM
SI (CC50/IC50) (SARS-CoV-2 [3]; Calu-3 cells): > 7.08
Anti-SARS-CoV-2 screening on Calu-3 cells: viability [% of control] (SARS-CoV-2 [4]): 76.99 % of control
total cell numbers (SARS-CoV-2 [4]): ≥ 75%
reduction of infected cell numbers (SARS-CoV-2 [4]): more than 50%
Anti-SARS-CoV-2 screening on Calu-3 cells: intracellular SARS-CoV-2 infection measured via immunofluorescence imaging [% of control] (SARS-CoV-2 [4]): 20.74 % of control
CC50 (Calu-3 cells): > 40000 nM
cytotoxicity in HAE cells, GAPDH mRNA [5]: without reducing GAPDH mRNA levels

Cc1cc(-c2nc3cc(F)ccc3s2)ccc1NC(=O)[C@@H](N)CCCCN [Phortress, reference compound]
IC50 (HCoV-229E [1]; Huh-7.5/F-Luc cells, 8-step dose series, 48 hours at 33°C, read-out: IC50 against HCoV-229E): 230 nM
antiviral activity against SARS-CoV-2 in HAE cells (SARS-CoV-2 [2]): dose dependently inhibited SARS-CoV-2 infection
CC50 (µM) (Huh-7.5/F-Luc cells): greater than maximum tested dose
% cell viability at max. dose [5 µM] (Huh-7.5/F-Luc cells): 252.77%
SI (CC50/IC50) (SARS-CoV-2 [3]; Calu-3 cells): 1.49
IC90 (SARS-CoV-2 [3]; Calu-3 cells, viral genome copies in supernatant 48 hours post-infection): 164000 nM
IC50 (SARS-CoV-2 [3]; Calu-3 cells, viral genome copies in supernatant 48 hours post-infection, n = 3): 13300 nM
Anti-SARS-CoV-2 screening on Calu-3 cells: viability [% of control] (SARS-CoV-2 [4]): 106.32 % of control
total cell numbers (SARS-CoV-2 [4]): ≥ 75%
reduction of infected cell numbers (SARS-CoV-2 [4]): more than 50%
Anti-SARS-CoV-2 screening on Calu-3 cells: intracellular SARS-CoV-2 infection measured via immunofluorescence imaging [% of control] (SARS-CoV-2 [4]): 46.05 % of control
CC50 (Calu-3 cells): 19900 nM
cytotoxicity in HAE cells, GAPDH mRNA [5]: without reducing GAPDH mRNA levels

CCC(CC)COC(=O)[C@H](C)N[P@](=O)(OC[C@H]1O[C@@](C#N)(c2ccc3c(N)ncnn23)[C@H](O)[C@@H]1O)Oc1ccccc1 [Remdesivir]
IC50 (HCoV-229E [1]; Human coronavirus 229E, Huh7.5): 20 nM
IC50 (HCoV-229E [1]; [13]): 15.7 nM
IC50 (HCoV-229E [8]; [14]): 0.83 nM
antiviral activity against SARS-CoV-2 in HAE cells (SARS-CoV-2 [2]): dose dependently inhibited SARS-CoV-2 infection
CC50 (µM) (Huh-7.5/F-Luc cells): greater than maximum tested dose
SI (CC50/IC50) (SARS-CoV-2 [3]; Calu-3 cells): > 6.76
Anti-SARS-CoV-2 screening on Calu-3 cells: intracellular SARS-CoV-2 infection measured via immunofluorescence imaging [% of control] (SARS-CoV-2 [4]): 1.09 % of control
cytotoxicity in HAE cells, GAPDH mRNA [5]: without reducing GAPDH mRNA levels
IC50 (SARS-CoV-2 [7]): 180 nM
IC90 (SARS-CoV-2 [7]): 310 nM
